Experiments:
[1] = target: T1, Human CD73 (amino acid residues 27-549) (Homo sapiens, UniProt P21589); test: CD73 enzymatic assay (luciferase-based indirect assay, CellTiter-Glo); format: biochemical; settings: 0.4 nM CD73, 150 μM AMP, 1 hour at room temperature
T1 construct: Human CD73 (amino acid residues 27-549); His tag (N); made in house; host or cells: E. coli
T1 sequence (P21589 27-549): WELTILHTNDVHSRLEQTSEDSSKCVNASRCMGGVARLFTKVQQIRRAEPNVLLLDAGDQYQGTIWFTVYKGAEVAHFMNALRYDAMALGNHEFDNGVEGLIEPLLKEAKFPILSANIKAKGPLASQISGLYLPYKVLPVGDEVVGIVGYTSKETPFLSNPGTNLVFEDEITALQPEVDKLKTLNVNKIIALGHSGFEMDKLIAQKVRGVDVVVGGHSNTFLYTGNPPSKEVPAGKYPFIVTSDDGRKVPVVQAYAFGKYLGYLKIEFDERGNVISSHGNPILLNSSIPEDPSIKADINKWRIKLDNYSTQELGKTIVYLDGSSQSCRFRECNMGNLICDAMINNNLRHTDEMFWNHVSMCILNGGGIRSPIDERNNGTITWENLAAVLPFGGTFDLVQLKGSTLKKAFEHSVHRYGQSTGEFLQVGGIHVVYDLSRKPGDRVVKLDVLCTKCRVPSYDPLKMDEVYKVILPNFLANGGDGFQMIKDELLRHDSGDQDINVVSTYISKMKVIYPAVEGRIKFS
Procedure, shortened: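 Residual AMP inhibits luciferase, so luminescence reports CD73 turnover; read with CellTiter-Glo 2.0 plus 1 μM final ATP, 30 min. Reaction used 0.4 nM N-His CD73 (27-549, E. coli), 150 μM AMP, HEPES pH 7.4 with Tween 20, 1 h at room temperature. IC50 fitted by nonlinear regression.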

human CD73 = target: T2, human CD73 (Homo sapiens, UniProt P21589); test: Inhibitor activity against CD73 in cell based assay (CD73 expressing CHO-K1 cells); settings: CHO-K1 cells expressing human CD73, 150 μM AMP, 4 hours of incubation; read-out: CHO-K1 CELL VARIANT: CD73 IC50
T2 construct: expressed in transfected cells
T2 sequence (P21589 27-549): T1 sequence (P21589 27-549)
Procedure, shortened: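 Residual supernatant AMP was quantified via CellTiter-Glo luminescence (1 μM ATP added, 30 min, room temperature) after a 4 h exposure of human CD73-expressing CHO-K1 cells to 150 μM AMP plus compound, top final 10 μM, 8 points. IC50 came from nonlinear regression of percent inhibition.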

Row | SMILES | IC50 [1] | IC50 (human CD73)
1 | O=C(NC1CCC(F)(F)CC1)O[C@@H]1CCN(c2cn[nH]c(=O)c2Cl)C1 [P-0106, (R)-1-(5-chloro-6-oxo-1,6-dihydropyridazin-4-yl)pyrrolidin-3-yl (4,4-difluorocyclohexyl)carbamate] | 0.001 to 10 µM | 0.001 to 10 µM
2 | O=C(NC1CCCC1)O[C@@H]1CCN(c2cnn(CC(O)CO)c(=O)c2Cl)C1 (stereo partly drawn) [P-0397, (3R)-1-(5-chloro-1-(2,3-dihydroxypropyl)-6-oxo-1,6-dihydropyridazin-4-yl)pyrrolidin-3-yl cyclopentylcarbamate] | 0.001 to 10 µM | 0.001 to 10 µM
3 | O=C(NC1CC1)N[C@H]1CC[C@@H](NC(=O)O[C@@H]2CCN(c3cn[nH]c(=O)c3Cl)C2)CC1 [P-0326, (R)-1-(5-chloro-6-oxo-1,6-dihydropyridazin-4-yl)pyrrolidin-3-yl ((1s,4S)-4-(3-cyclopropylureido)cyclohexyl) carbamate] | 0.001 to 10 µM | 0.001 to 10 µM
4 | N#Cc1c(N2CC[C@@H](OC(=O)NC3CCCCC3)C2)cnn(CCO)c1=O [P-0473, (R)-1-(5-cyano-1-(2-hydroxyethyl)-6-oxo-1,6-dihydropyridazin-4-yl)pyrrolidin-3-yl cyclohexylcarbamate] | 0.001 to 10 µM | 0.001 to 10 µM
5 | O=C(NCCC1CCCC1)O[C@@H]1CCN(c2cn[nH]c(=O)c2Cl)C1 [P-0234, (R)-1-(5-chloro-6-oxo-1,6-dihydropyridazin-4-yl)pyrrolidin-3-yl (2-cyclopentylethyl)carbamate] | 0.001 to 10 µM | 0.001 to 10 µM
6 | O=C(NC1CCCC(F)(F)C1)O[C@H]1CN(c2cnn(CCO)c(=O)c2Cl)C[C@@H]1F (stereo partly drawn) [P-0507, (3S,4S)-1-(5-chloro-1-(2-hydroxyethyl)-6-oxo-1,6-dihydropyridazin-4-yl)-4-fluoropyrrolidin-3-yl (3,3-difluorocyclohexyl)carbamate] | 0.001 to 10 µM | 0.001 to 10 µM
7 | CC1(NC(=O)O[C@@H]2CCN(c3cn[nH]c(=O)c3Cl)C2)CCOC1 (stereo partly drawn) [P-0113, (R)-1-(5-chloro-6-oxo-1,6-dihydropyridazin-4-yl)pyrrolidin-3-yl (3-methyltetrahydrofuran-3-yl)carbamate] | 0.001 to 10 µM | 0.001 to 10 µM
8 | O=C(N[C@H]1C[C@H](NS(=O)(=O)c2ccccc2)C1)O[C@@H]1CCN(c2cn[nH]c(=O)c2Cl)C1 [P-0171, (R)-1-(5-chloro-6-oxo-1,6-dihydropyridazin-4-yl)pyrrolidin-3-yl ((1r,3R)-3-(phenylsulfonamido)cyclobutyl) carbamate] | 0.001 to 10 µM | 0.001 to 10 µM
9 | O=C(N[C@@H]1CCC[C@H]1CO)O[C@@H]1CCN(c2cn[nH]c(=O)c2Cl)C1 [P-0508, (R)-1-(5-chloro-6-oxo-1,6-dihydropyridazin-4-yl)pyrrolidin-3-yl ((1R,2R)-2-(hydroxymethyl)cyclopentyl) carbamate] | 0.001 to 10 µM | 0.001 to 10 µM
10 | CC1(S(=O)(=O)N[C@H]2CC[C@H](NC(=O)O[C@@H]3CCN(c4cn[nH]c(=O)c4Cl)C3)CC2)CC1 [P-0313, (R)-1-(5-chloro-6-oxo-1,6-dihydropyridazin-4-yl)pyrrolidin-3-yl ((1r,4R)-4-((1-methylcyclopropane)-1-sulfonamido)cyclohexyl) carbamate] | 0.001 to 10 µM | 0.001 to 10 µM
11 | NC(=O)[C@H]1CC[C@@H](NC(=O)O[C@@H]2CCN(c3cn[nH]c(=O)c3Cl)C2)CC1 [P-0181, (R)-1-(5-chloro-6-oxo-1,6-dihydropyridazin-4-yl)pyrrolidin-3-yl ((1s,4S)-4-carbamoylcyclohexyl) carbamate] | 0.001 to 10 µM | 0.001 to 10 µM
12 | O=C(NC1CCN(C(=O)c2ccccc2)CC1)O[C@@H]1CCN(c2cn[nH]c(=O)c2Cl)C1 [P-0369, (R)-1-(5-chloro-6-oxo-1,6-dihydropyridazin-4-yl)pyrrolidin-3-yl (1-benzoylpiperidin-4-yl)carbamate] | 0.001 to 10 µM | 0.001 to 10 µM
13 | O=C(N[C@H]1CC[C@H](NS(=O)(=O)CC(F)(F)F)CC1)O[C@@H]1CCN(c2cn[nH]c(=O)c2Cl)C1 [P-0305, (R)-1-(5-chloro-6-oxo-1,6-dihydropyridazin-4-yl)pyrrolidin-3-yl ((1r,4R)-4-((2,2,2-trifluoroethyl)sulfonamido)cyclohexyl)carbamate] | 0.001 to 10 µM | 0.001 to 10 µM
14 | O=C(NC1CCC(F)(F)CC1)O[C@@H]1CCN(c2cnn(CC(O)C(F)(F)F)c(=O)c2Cl)C1 (stereo partly drawn) [P-0284, (3R)-1-(5-chloro-6-oxo-1-(3,3,3-trifluoro-2-hydroxypropyl)-1,6-dihydropyridazin-4-yl)pyrrolidin-3-yl (4,4-difluorocyclohexyl)carbamate] | 0.001 to 10 µM | 0.001 to 10 µM
15 | CS(=O)(=O)N[C@H]1CC[C@H](NC(=O)O[C@@H]2CCN(c3cn[nH]c(=O)c3C#N)C2)CC1 [P-0144, (R)-1-(5-cyano-6-oxo-1,6-dihydropyridazin-4-yl)pyrrolidin-3-yl ((1r,4R)-4-(methylsulfonamido)cyclohexyl)carbamate] | 0.001 to 10 µM | 0.001 to 10 µM
16 | N#Cc1c(N2CC[C@@H](OC(=O)NC3CCCCC3)C2)cn[nH]c1=O [P-0127, (R)-1-(5-cyano-6-oxo-1,6-dihydropyridazin-4-yl)pyrrolidin-3-yl cyclohexylcarbamate] | 0.001 to 10 µM | 0.001 to 10 µM
17 | CNS(=O)(=O)N[C@H]1CC[C@H](NC(=O)O[C@@H]2CCN(c3cn[nH]c(=O)c3Cl)C2)CC1 [P-0312, (R)-1-(5-chloro-6-oxo-1,6-dihydropyridazin-4-yl)pyrrolidin-3-yl ((1r,4R)-4-((N-methylsulfamoyl)amino)cyclohexyl)carbamate] | 0.001 to 10 µM | 0.001 to 10 µM
18 | O=C(NC1CC2CCC1C2)O[C@@H]1CCN(c2cn[nH]c(=O)c2Cl)C1 (stereo partly drawn) [P-0204, (R)-1-(5-chloro-6-oxo-1,6-dihydropyridazin-4-yl)pyrrolidin-3-yl bicyclo[2.2.1]heptan-2-ylcarbamate] | 0.001 to 10 µM | 0.001 to 10 µM
19 | O=C(NC1CC2C(C1)C2(F)F)O[C@@H]1CCN(c2cnn(CCO)c(=O)c2Cl)C1 (stereo partly drawn) [P-0453, (R)-1-(5-chloro-1-(2-hydroxyethyl)-6-oxo-1,6-dihydropyridazin-4-yl)pyrrolidin-3-yl (6,6-difluorobicyclo[3.1.0]hexan-3-yl)carbamate] | 0.001 to 10 µM | 0.001 to 10 µM
20 | CC1(C)CCC(NC(=O)O[C@@H]2CCN(c3cn[nH]c(=O)c3Cl)C2)C1 (stereo partly drawn) [P-0387, (R)-1-(5-chloro-6-oxo-1,6-dihydropyridazin-4-yl)pyrrolidin-3-yl (3,3-dimethylcyclopentyl)carbamate] | 0.001 to 10 µM | 0.001 to 10 µM
21 | CC1CCCC(NC(=O)O[C@@H]2CCN(c3cn[nH]c(=O)c3Cl)C2)C1 (stereo partly drawn) [P-0425, (R)-1-(5-chloro-6-oxo-1,6-dihydropyridazin-4-yl)pyrrolidin-3-yl (3-methylcyclohexyl)carbamate] | 0.001 to 10 µM | 0.001 to 10 µM
22 | O=C(N[C@H]1CCCC(F)(F)C1)O[C@@H]1CCN(c2cnn(CCO)c(=O)c2Cl)C1 [P-0514, (R)-1-(5-chloro-1-(2-hydroxyethyl)-6-oxo-1,6-dihydropyridazin-4-yl)pyrrolidin-3-yl ((S)-3,3-difluorocyclohexyl)carbamate] | 0.001 to 10 µM | 0.001 to 10 µM
23 | O=C(NC1Cc2ccccc2C1)O[C@@H]1CCN(c2cn[nH]c(=O)c2Cl)C1 [P-0206, (R)-1-(5-chloro-6-oxo-1,6-dihydropyridazin-4-yl)pyrrolidin-3-yl (2,3-dihydro-1H-inden-2-yl)carbamate] | 0.001 to 10 µM | 0.001 to 10 µM
24 | Cn1ncc(N2CC[C@@H](OC(=O)N[C@H]3CC[C@H](NS(=O)(=O)c4ccccc4F)CC3)C2)c(Cl)c1=O [P-0201, (R)-1-(5-chloro-1-methyl-6-oxo-1,6-dihydropyridazin-4-yl)pyrrolidin-3-yl ((1r,4R)-4-((2-fluorophenyl)sulfonamido)cyclohexyl)carbamate] | 0.001 to 10 µM | 0.001 to 10 µM
25 | O=C(N[C@H]1CC[C@@H](NC2CCS(=O)(=O)CC2)CC1)O[C@@H]1CCN(c2cn[nH]c(=O)c2Cl)C1 [P-0489, (R)-1-(5-chloro-6-oxo-1,6-dihydropyridazin-4-yl)pyrrolidin-3-yl ((1s,4S)-4-((1,1-dioxidotetrahydro-2H-thiopyran-4-yl)amino)cyclohexyl)carbamate] | 0.001 to 10 µM | 0.001 to 10 µM
26 | O=C(N[C@H]1CCN(c2cn[nH]c(=O)c2Cl)C1)O[C@@H]1CCN(c2cn[nH]c(=O)c2Cl)C1 [P-0136, (R)-1-(5-chloro-6-oxo-1,6-dihydropyridazin-4-yl)pyrrolidin-3-yl ((S)-1-(5-chloro-6-oxo-1,6-dihydropyridazin-4-yl)pyrrolidin-3-yl)carbamate] | 0.001 to 10 µM | 0.001 to 10 µM

From US12509444B2, “Compounds and methods for CD73 modulation and indications therefor” (Plexxikon Inc., priority 2019, dated 2025)
